From US10576102B2, “KOC1-derived peptide and vaccine including same” (ONCOTHERAPY SCIENCE, INC., priority 2014, dated 2020) come the findings set out here.

Entries after “also recorded” stand apart in the source; their conditions may differ.

For experiment [1], the system named is peptide-pulsed C1R-A11. Put plainly: IFN-gamma ELISA of CTL lines and CTL clones (HLA-A*1101). Format: cell-based, human. Here is the method:
(§1) CTLs were propagated in culture using methods similar to those disclosed by Riddell et al. (Walter E A et al., N Engl J Med 1995, 333(16): 1038-44; Riddell S R et al., Nat Med 1996, 2(2): 216-23). The CTLs were co-cultured in a total of 25 ml AIM-V medium containing 5% AS (AIM-V/5% AS) and 40 ng/ml anti-CD3 antibody with two types of Mitomycin C-treated human B lymphoblastoid cell lines at 5×10^6 cells/flask. One day after beginning of the culturing, 120 IU/ml IL-2 was added to the culture. On days 5, 8 and 11, a fresh AIM-V/5% AS medium containing 30 IU/ml IL-2 was added to the culture (Tanaka H et al., Br J Cancer 2001, 84(1): 94-9; Umano Y et al., Br J Cancer 2001, 84(8): 1052-7; Uchida N et al., Clin Cancer Res 2004, 10(24): 8577-86; Suda T et al., Cancer Sci 2006, 97(5): 411-9; Watanabe T et al., Cancer Sci 2005, 96(8): 498-506).
Dilution of CTLs was carried out to make 0.3, 1 and 3 cells/well in 96 round-bottomed microtiter plates (Nalge Nunc International). The CTLs were co-cultured with two types of Mitomycin C-treated human B lymphoblastoid cell lines at 1×10^4 cells/well in a total of 150 micro-1/well AIM-V/5% AS medium with 30 ng/ml anti-CD3 antibody and 125 IU/ml IL-2. Ten days later, IL-2 was added to the medium at 50 micro-1/well to reach a final concentration of 125 IU/ml. On day 14, the CTL activity was tested, and the CTL clones were propagated using the same method as described above (Uchida N et al., Clin Cancer Res 2004, 10(24): 8577-86; Suda T et al., Cancer Sci 2006, 97(5): 411-9; Watanabe T et al., Cancer Sci 2005, 96(8): 498-506).
(§2) Specifically, peptide-pulsed C1R-A11 (1×10^4 cells/well) was prepared as the stimulator cell. The induced CTLs, i.e., CTL lines and CTL clones, were used as the responder cell. The IFN-gamma ELISPOT assay and IFN-gamma ELISA were performed according to the manufacturer's manual.

In experiment [2] the test system is peptide-pulsed C1R-A11. Nature of the experiment: In vitro CTL induction, IFN-gamma ELISPOT assay (HLA-A*1101). Format: cell-based, human. The settings on record: CTLs induced with peptide-pulsed DCs from HLA-A*1101-positive volunteers; day 21; vs peptide-pulsed C1R-A11, compared with unpulsed control. How it is done:
C1R (C1R-A11) that stably expresses HLA-A*1101 was used as a stimulator cell. A cDNA encoding the open-reading frame of HLA-A*1101 was amplified by PCR and cloned into an expression vector. C1R cells were transfected with the expression vector, and then selected using G418 (Invitrogen) for two weeks. The G418-selected cells were seeded into wells containing G418-added culture medium in a 96-well plate, and further cultured for 30 days. The exogenous HLA-A*1101 expression in C1R cells was verified by flow cytometric analysis.
(§3) Monocyte-derived dendritic cells (DCs) were used as the antigen-presenting cell to induce a cytotoxic T lymphocyte (CTL) response against peptides presented on human leukocyte antigens (HLAs). As described in the other sections, DCs were generated in vitro (Nakahara S et al., Cancer Res 2003, 63(14): 4112-8). Specifically, peripheral-blood mononuclear cells isolated from healthy volunteers (HLA-A*1101-positive) with the Ficoll-Paque plus solution (Pharmacia) were separated by attaching to plastic tissue culture dishes (Becton Dickinson) and concentrated as a monocyte fraction. The monocyte-concentrated population was cultured in the presence of 1000 IU/ml granulocyte macrophage colony-stimulating factor (R&D System) and 1000 IU/ml interleukin(IL)-4 (R&D System) in an AIM-V medium (Invitrogen) containing 2% heat-inactivated autologous serum (AS). After seven days of culturing, the cytokine-induced DCs were pulsed with 20 micro-g/ml each of the synthesized peptides in an AIM-V medium at 37 degrees C. for three hours in the presence of 3 micro-g/ml beta 2-microglobulin. The generated cells appeared to express on their cell surface DC-associated molecules such as CD80, CD83, CD86 and HLA class II (data not shown). Next, these peptide-pulsed DCs were inactivated, by X-ray irradiation (20 Gy), and mixed in a 1:20 ratio with autologous CD8^+ T cells obtained by positive selection using the CD8 Positive Isolation Kit (Dynal). These culture products were seeded in a 48-well plate (Corning). Each well was made to contain 1.5×10^4 peptide-pulsed DCs, 3×10^5 CD8^+ T cells and 10 ng/ml IL-7 (R&D System) in 0.5 ml of the AIM-V/2% AS medium. Three days later, these culture products were added with a final concentration of 20 IU/ml IL-2 (CHIRON). On day 7 and day 14, T cells were further stimulated with peptide-pulsed autologous DCs. The DCs were prepared every time by the same method as above. On day 21, after the third peptide stimulation, CTLs were examined against the peptide-pulsed C1R-A11 by a human interferon (IFN)-gamma enzyme-linked immunospot (ELISPOT) assay (Tanaka H et al., Br J Cancer 2001, 84(1): 94-9; Umano Y et al., Br J Cancer 2001, 84(8): 1052-7; Uchida N et al., Clin Cancer Res 2004, 10(24): 8577-86; Suda T et al., Cancer Sci 2006, 97(5): 411-9; Watanabe T et al., Cancer Sci 2005, 96(8): 498-506).
as §2

The test system of experiment [3] is COS7 cells transfected with both KOC1 and HLA-A*1101. Put plainly: Specific CTL activity against target cells expressing KOC1 and HLA-A*1101. Type of experiment: cell-based, African green monkey. As to conditions: listed as KOC1-A11-10-14. How it is done: as §2
A cDNA encoding the open-reading frame of a target gene or HLA-A*1101 was amplified by PCR. The PCR-amplified product was cloned into an expression vector. Either or both of the target gene-expressing vector and the HLA-A*1101-expressing vector were transfected into […], which is a cell line negative for the target gene and HLA, using Lipofectamine 2000 (Invitrogen) following the manufacturer's recommended protocol. Two days after transfection, the transfected cells were harvested using versene (Invitrogen), and used as the target cell for CTL activity assay (5×10^4 cells/well).
The CTL clone established against KOC1-A11-10-14 (SEQ ID NO: 32) was investigated for its ability to recognize target cells expressing KOC1 and the HLA-A*1101 molecule. COS7 cells transfected with both full-length KOC1 and the HLA-A*1101 gene (a specific model of target cells expressing KOC1 and the HLA-A*1101 gene) were prepared as the target cell. COS7 cells transfected with either full-length KOC1 or HLA-A*1101 were prepared as the control.

Experiment [4] relates to COS7 cells transfected with both KOC1 and HLA-A*0301. Nature of the experiment: Specific CTL activity against target cells expressing KOC1 and HLA-A*0301. Type of experiment: cell-based, African green monkey. As to conditions: listed as KOC1-A03-10-120. How it is done: Specifically, peptide-pulsed C1R-A03 (1×10^4 cells/well) was prepared as the stimulator cell. The induced CTLs, i.e., CTL lines and CTL clones, were used as the responder cell. The IFN-gamma ELISPOT assay and IFN-gamma ELISA were performed according to the manufacturer's manual.
A cDNA encoding the open-reading frame of a target gene or HLA-A*0301 was amplified by PCR. The PCR-amplified product was cloned into an expression vector. Either or both of the target gene-expressing vector and the HLA-A*0301-expressing vector were transfected into […], which is a cell line negative for the target gene and HLA, using Lipofectamine 2000 (Invitrogen) following the manufacturer's recommended protocol. Two days after transfection, the transfected cells were harvested using versene (Invitrogen), and used as the target cell for CTL activity assay (5×10^4 cells/well).
The CTL clone established against KOC1-A03-10-120 (SEQ ID NO: 27) was investigated for their ability to recognize target cells expressing KOC1 and the HLA-A*0301 molecule. COS7 cells transfected with both full-length KOC1 and the HLA-A*0301 gene (a specific model of target cells expressing KOC1 and the HLA-A*0301 gene) were prepared as the target cell. COS7 cells transfected with either full-length KOC1 or HLA-A*0301 were prepared as the control.

Experiment [5] relates to peptide-pulsed C1R-A03. Put plainly: In vitro CTL induction, IFN-gamma ELISPOT assay (HLA-A*0301). The settings on record: CTLs induced with peptide-pulsed DCs from HLA-A*0301-positive volunteers; day 21; vs peptide-pulsed C1R-A03, compared with unpulsed control. Type of experiment: cell-based, human. How it is done:
C1R (C1R-A03) that stably expresses HLA-A*0301 was used as a stimulator cell. A cDNA encoding the open-reading frame of HLA-A*0301 was amplified by PCR and cloned into an expression vector. C1R cells were transfected with the expression vector, and then selected using G418 (Invitrogen) for two weeks. The G418-selected cells were seeded into wells containing G418-added culture medium in a 96-well plate, and further cultured for 30 days. The exogenous HLA-A*0301 expression in C1R cells was verified by flow cytometric analysis.
as §3, with “(HLA-A*0301-positive)” for “(HLA-A*1101-positive)”, “inactivated” for “inactivated,”, “On day 21, after the third peptide stimulation, CTLs were examined against the peptide-pulsed C1R-A11 by a human interferon (IFN)-gamma enzyme-linked immunospot (ELISPOT) assay (Tanaka H et al., Br J Cancer 2001, 84(1): 94-9; Umano Y et al., Br J Cancer 2001, 84(8): 1052-7; Uchida N et al., Clin Cancer Res 2004, 10(24): 8577-86; Suda T et al., Cancer Sci 2006, 97(5): 411-9; Watanabe T et al., Cancer Sci 2005, 96(8): 498-506).” left out

For experiment [6], the system named is peptide-pulsed C1R-A03. Put plainly: IFN-gamma ELISA of CTL line and CTL clone (HLA-A*0301). Format: cell-based, human. How it is done: as §1
Dilution of CTLs was carried out to make 0.3, 1 and 3 cells/well in 96 round-bottomed microtiter plates (Nalge Nunc International). The CTLs were co-cultured with two types of Mitomycin C-treated human B lymphoblastoid cell lines at 1×10^4 cells/well in a total of 150 micro-1/well AIM-V/5% AS medium with 30 ng/ml anti-CD3 antibody and 125 IU/ml IL-2. Ten days later, IL-2 was added to the medium at 50 micro-1/well to reach a final concentration of 125 IU/ml. […]
(ELISA stands for enzyme-linked immunosorbent assay.)

“APSDLESIFK (a peptide derived from KOC1) [SEQ ID NO: 32]”: the “IFN-gamma production of CTL clones, ELISA” value in the experiment on peptide-pulsed C1R-A11 [1] (CTL clones by limiting dilution, peptide-pulsed C1R-A11, listed as KOC1-A11-10-14) is on record as “Potent IFN-gamma production”. For the same sequence, the “IFN-gamma production of CTL lines, ELISA” value in the experiment with peptide-pulsed C1R-A11 [1] (CTL lines, target cells pulsed with the peptide vs not pulsed, C1R-A11) is “potent IFN-gamma production”. Also, the “peptide-specific CTL activity (IFN-gamma production), ELISPOT” value with peptide-pulsed C1R-A11 [2] was “potent IFN-gamma production”. Besides, the “specific CTL activity of CTL clone against target cells expressing KOC1 and HLA-A*1101” value in experiment [3] (COS7 transfected with both full-length KOC1 and HLA-A*1101) is “specific CTL activity; also recorded: potent CTL activity”. Moreover, the “specific CTL activity of CTL clone against control cells” value in experiment [3] (COS7 transfected with either full-length KOC1 or HLA-A*1101) is given as “a significant specific CTL activity was not shown; also recorded: a significant specific CTL activity was not detected”.
“AVVNVTYSSK (a peptide derived from KOC1) [SEQ ID NO: 27]”: the “specific CTL activity of CTL clone against target cells expressing KOC1 and HLA-A*0301” value in experiment [4] (COS7 transfected with both full-length KOC1 and HLA-A*0301) is on record as “specific CTL activity; also recorded: potent CTL activities”. Besides, the “specific CTL activity of CTL clone against control cells” value in experiment [4] (COS7 transfected with either full-length KOC1 or HLA-A*0301) is on record as “a significant specific CTL activity was not shown; also recorded: a significant specific CTL activity was not detected”. In addition, the “peptide-specific CTL activity (IFN-gamma production), ELISPOT” value in the experiment on peptide-pulsed C1R-A03 [5] is “potent IFN-gamma production”. For the same sequence, the “IFN-gamma production of CTL clone, ELISA” value in the experiment on peptide-pulsed C1R-A03 [6] (CTL clone by limiting dilution, peptide-pulsed C1R-A03, listed as KOC1-A03-10-120) is reported as “Potent IFN-gamma production”. Moreover, the “IFN-gamma production of CTL line, ELISA” value in the experiment with peptide-pulsed C1R-A03 [6] (CTL line, target cells pulsed with the peptide vs not pulsed, C1R-A03) is reported as “potent IFN-gamma production”.
